# Key:
# Assay in all cases: increase in dead-cell fraction, 72 h; higher = more death;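 note: breast cancer cell lines in 384-well plates, stained with Hoechst plus LIVE/DEAD far red dye and imaged, cells above an LDR intensity threshold counted dead, Hoechst-negative corpses included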
# INK128/MLN0128 = compound: CC(C)n1nc(-c2ccc3oc(N)nc3c2)c2c(N)ncnc21 [INK128/MLN0128]
# THZ-P1-2 = compound: CN(C)C/C=C/C(=O)NC1=CC=C(C=C1)C(=O)NC2=CC=CC(=C2)NC3=NC=NC(=C3)C4=CNC5=CC=CC=C54 [THZ-P1-2]
# Cediranib/AZD2171 = compound: COc1cc2c(Oc3ccc4[nH]c(C)cc4c3F)ncnc2cc1OCCCN1CCCC1 [Cediranib/AZD2171]
# [1] = compound: Cc1nn(C)c(COc2ccc(N3CCN(S(=O)(=O)N(C)C)CC3)cc2)c1-c1cccc2c(CCCOc3cccc4ccccc34)c(C(=O)O)n(CCN3CCOCC3)c12
# Ceritinib/LDK378 = compound: Cc1cc(Nc2ncc(Cl)c(Nc3ccccc3S(=O)(=O)C(C)C)n2)c(OC(C)C)cc1C1CCNCC1 [Ceritinib/LDK378]
# [2] = compound: COc1cccc(OCCCN)c1-c1cc(Nc2cnc(C#N)cn2)n[nH]1
# Everolimus = compound: CO[C@H]1C[C@@H]2CC[C@@H](C)[C@@](O)(O2)C(=O)C(=O)N2CCCC[C@H]2C(=O)O[C@H]([C@H](C)C[C@@H]2CC[C@@H](OCCO)[C@H](OC)C2)CC(=O)[C@H](C)/C=C(\C)[C@@H](O)[C@@H](OC)C(=O)[C@H](C)C[C@H](C)/C=C/C=C/C=C/1C [Everolimus]
# Buparlisib/NVP-BKM120 = compound: Nc1cc(C(F)(F)F)c(-c2cc(N3CCOCC3)nc(N3CCOCC3)n2)cn1 [Buparlisib/NVP-BKM120]
# TGX221 = compound: CC1=CN2C(=O)C=C(N=C2C(=C1)C(C)NC3=CC=CC=C3)N4CCOCC4 [TGX221]
# Dasatinib = compound: Cc1nc(Nc2ncc(C(=O)Nc3c(C)cccc3Cl)s2)cc(N2CCN(CCO)CC2)n1 [Dasatinib]
# FMF-03-146-1 = compound: CN1CCN(CC1)C2=CC(=C(C=C2)NC3=NC=C4C(=N3)N(C5=CC=CC=C5C(=O)N4CC(F)(F)F)C)OC [FMF-03-146-1]
# senexin b = compound: CN1CCN(C(=O)c2ccc3cc(CCNc4ncnc5ccc(C#N)cc45)ccc3c2)CC1 [senexin b]
cell line,measurement,setting,value
AU565,increase in dead-cell fraction,INK128/MLN0128; 0.0003162 µM,0.0039
same,increase in dead-cell fraction,INK128/MLN0128; 0.001 µM,0.0034
same,increase in dead-cell fraction,INK128/MLN0128; 0.003162 µM,0.0155
same,increase in dead-cell fraction,INK128/MLN0128; 0.01 µM,0.0233
same,increase in dead-cell fraction,INK128/MLN0128; 0.03162 µM,0.0367
same,increase in dead-cell fraction,INK128/MLN0128; 0.1 µM,0.0543
same,increase in dead-cell fraction,INK128/MLN0128; 0.3162 µM,0.0671
same,increase in dead-cell fraction,INK128/MLN0128; 1 µM,0.084
same,increase in dead-cell fraction,INK128/MLN0128; 3.162 µM,0.244
same,increase in dead-cell fraction,THZ-P1-2; 0.01 µM,-0.0013
same,increase in dead-cell fraction,THZ-P1-2; 0.03162 µM,-0.0105
same,increase in dead-cell fraction,THZ-P1-2; 0.1 µM,0.0091
same,increase in dead-cell fraction,THZ-P1-2; 0.3162 µM,-0.0029
same,increase in dead-cell fraction,THZ-P1-2; 1 µM,-0.0001
same,increase in dead-cell fraction,THZ-P1-2; 3.162 µM,-0.0022
same,increase in dead-cell fraction,THZ-P1-2; 10 µM,0.569
same,increase in dead-cell fraction,Cediranib/AZD2171; 0.001 µM,0.0037
same,increase in dead-cell fraction,Cediranib/AZD2171; 0.003162 µM,0.0046
same,increase in dead-cell fraction,Cediranib/AZD2171; 0.01 µM,0.0016
same,increase in dead-cell fraction,Cediranib/AZD2171; 0.03162 µM,0.0034
same,increase in dead-cell fraction,Cediranib/AZD2171; 0.1 µM,-0.0003
same,increase in dead-cell fraction,Cediranib/AZD2171; 0.3162 µM,-0.0061
same,increase in dead-cell fraction,Cediranib/AZD2171; 1 µM,-0.0046
same,increase in dead-cell fraction,Cediranib/AZD2171; 3.162 µM,-0.0048
same,increase in dead-cell fraction,Cediranib/AZD2171; 10 µM,0.0027
same,increase in dead-cell fraction,[1]; 0.001 µM,0.0054
same,increase in dead-cell fraction,[1]; 0.003162 µM,0.0034
same,increase in dead-cell fraction,[1]; 0.01 µM,0.0061
same,increase in dead-cell fraction,[1]; 0.03162 µM,0.0001
same,increase in dead-cell fraction,[1]; 0.1 µM,0.0007
same,increase in dead-cell fraction,[1]; 0.3162 µM,-0.0037
same,increase in dead-cell fraction,[1]; 1 µM,0.0003
same,increase in dead-cell fraction,[1]; 3.162 µM,0.0012
same,increase in dead-cell fraction,[1]; 10 µM,0.0111
same,increase in dead-cell fraction,Ceritinib/LDK378; 0.001 µM,-0.0009
same,increase in dead-cell fraction,Ceritinib/LDK378; 0.003162 µM,0.0007
same,increase in dead-cell fraction,Ceritinib/LDK378; 0.01 µM,0.001
same,increase in dead-cell fraction,Ceritinib/LDK378; 0.03162 µM,-0.0017
same,increase in dead-cell fraction,Ceritinib/LDK378; 0.1 µM,-0.004
same,increase in dead-cell fraction,Ceritinib/LDK378; 0.3162 µM,0.0015
same,increase in dead-cell fraction,Ceritinib/LDK378; 1 µM,0.0037
same,increase in dead-cell fraction,Ceritinib/LDK378; 3.162 µM,0.0216
same,increase in dead-cell fraction,[2]; 10 pM,-0.002
same,increase in dead-cell fraction,[2]; 31.6 pM,-0.0013
same,increase in dead-cell fraction,[2]; 0.0001 µM,-0.0035
same,increase in dead-cell fraction,[2]; 0.0003162 µM,-0.0022
same,increase in dead-cell fraction,[2]; 0.001 µM,0.139
same,increase in dead-cell fraction,[2]; 0.003162 µM,0.168
same,increase in dead-cell fraction,[2]; 0.01 µM,0.194
same,increase in dead-cell fraction,[2]; 0.03162 µM,0.187
same,increase in dead-cell fraction,[2]; 0.1 µM,0.211
same,increase in dead-cell fraction,Everolimus; 0.001 µM,0.0191
same,increase in dead-cell fraction,Everolimus; 0.003162 µM,0.0225
same,increase in dead-cell fraction,Everolimus; 0.01 µM,0.0257
same,increase in dead-cell fraction,Everolimus; 0.03162 µM,0.0132
same,increase in dead-cell fraction,Everolimus; 0.1 µM,0.0177
same,increase in dead-cell fraction,Everolimus; 0.3162 µM,0.0133
same,increase in dead-cell fraction,Everolimus; 1 µM,0.011
same,increase in dead-cell fraction,Everolimus; 3.162 µM,0.019
same,increase in dead-cell fraction,Everolimus; 10 µM,0.0283
same,increase in dead-cell fraction,Buparlisib/NVP-BKM120; 0.001 µM,-0.0006
same,increase in dead-cell fraction,Buparlisib/NVP-BKM120; 0.003162 µM,0.0058
same,increase in dead-cell fraction,Buparlisib/NVP-BKM120; 0.01 µM,0.0024
same,increase in dead-cell fraction,Buparlisib/NVP-BKM120; 0.03162 µM,0.0055
same,increase in dead-cell fraction,Buparlisib/NVP-BKM120; 0.1 µM,0.0187
same,increase in dead-cell fraction,Buparlisib/NVP-BKM120; 0.3162 µM,0.043
same,increase in dead-cell fraction,Buparlisib/NVP-BKM120; 1 µM,0.189
same,increase in dead-cell fraction,Buparlisib/NVP-BKM120; 3.162 µM,0.273
same,increase in dead-cell fraction,Buparlisib/NVP-BKM120; 10 µM,0.227
same,increase in dead-cell fraction,TGX221; 0.001 µM,0
same,increase in dead-cell fraction,TGX221; 0.003162 µM,-0.0043
same,increase in dead-cell fraction,TGX221; 0.01 µM,-0.0042
same,increase in dead-cell fraction,TGX221; 0.03162 µM,-0.0019
same,increase in dead-cell fraction,TGX221; 0.1 µM,0.0014
same,increase in dead-cell fraction,TGX221; 0.3162 µM,0.003
same,increase in dead-cell fraction,TGX221; 1 µM,0.0069
same,increase in dead-cell fraction,TGX221; 3.162 µM,0.0045
same,increase in dead-cell fraction,TGX221; 10 µM,0.0099
same,increase in dead-cell fraction,Dasatinib; 0.001 µM,0.0065
same,increase in dead-cell fraction,Dasatinib; 0.003162 µM,0.0017
same,increase in dead-cell fraction,Dasatinib; 0.01 µM,0.0035
same,increase in dead-cell fraction,Dasatinib; 0.03162 µM,-0.0007
same,increase in dead-cell fraction,Dasatinib; 0.1 µM,-0.003
same,increase in dead-cell fraction,Dasatinib; 0.3162 µM,0.0019
same,increase in dead-cell fraction,Dasatinib; 1 µM,-0.0024
same,increase in dead-cell fraction,Dasatinib; 3.162 µM,0.0091
same,increase in dead-cell fraction,Dasatinib; 10 µM,0.0365
same,increase in dead-cell fraction,FMF-03-146-1; 0.001 µM,-0.0004
same,increase in dead-cell fraction,FMF-03-146-1; 0.003162 µM,-0.0059
same,increase in dead-cell fraction,FMF-03-146-1; 0.01 µM,-0.0077
same,increase in dead-cell fraction,FMF-03-146-1; 0.03162 µM,-0.0019
same,increase in dead-cell fraction,FMF-03-146-1; 0.1 µM,-0.007
same,increase in dead-cell fraction,FMF-03-146-1; 0.3162 µM,0.0094
same,increase in dead-cell fraction,FMF-03-146-1; 1 µM,0.0124
same,increase in dead-cell fraction,FMF-03-146-1; 3.162 µM,-0.0094
same,increase in dead-cell fraction,FMF-03-146-1; 10 µM,0.0136
same,increase in dead-cell fraction,senexin b; 0.001 µM,-0.0057
same,increase in dead-cell fraction,senexin b; 0.003162 µM,-0.0066
same,increase in dead-cell fraction,senexin b; 0.01 µM,-0.0019
same,increase in dead-cell fraction,senexin b; 0.03162 µM,-0.0056
same,increase in dead-cell fraction,senexin b; 0.1 µM,-0.0146
same,increase in dead-cell fraction,senexin b; 0.3162 µM,0.0036
same,increase in dead-cell fraction,senexin b; 1 µM,0.0078
same,increase in dead-cell fraction,senexin b; 3.162 µM,0.0105
same,increase in dead-cell fraction,senexin b; 10 µM,-0.0068
